Results reported in patent publication US8846411B2, “Derivatives, reagents, and immunoassay for detecting levetiracetam” (Microgenics Corporation, priority 2009, dated 2014).

How the values were obtained:
[1] = cited from earlier work
[2] = test system: anti-levetiracetam antibody prepared with immunogen 18a; assay: Antibody avidity by ELISA binding inhibition study with levetiracetam; details: Sheep No. 5479 antibody
Experimental: The avidity of the anti-levetiracetam antibody prepared with immunogen 18a for various levetiracetam derivatives were determined by a binding inhibition study. Samples were prepared in 1 mL of PBS at pH 7.4 with 0.1% BSA. A composition having 30% Bmax titer or 50% Bmax titer was used to divide the titer value as obtained in Example 38 into approximately half the titer value. Using 30% Bmax, an antibody titer of 1:10000 was diluted to […] during the sample preparation stage. About 50 μL of levetiracetam at different concentrations or calibrator values, (0, 5, 10, 20, 40, 80 μg/ml) were applied to a plate as prepared in accordance with Example 38. About 50 μL of the diluted antibody was dispensed into the plate, and the compositions in the plate were mixed for 1 min on a horizontal plate shaker. No levetiracetam or anti-levetiracetam antibody was added to the first row of the plate, which served as a negative control. A second row with anti-levetiracetam antibody but without levetiracetam was used as the positive control. The plate was incubated for 60 min and washed three times with 250 μL of PBS at pH 7.4 with 0.05% Tween 20. About 125 μL of a diluted derivative such as 18b or 19 in PBS at pH 7.4 was added to each well of the plate. The plate was incubated for 60 min at 37° C. and washed as described above. Approximately 125 μL of ABTS substrate was added to each well of the plate and incubated for 20 min.

| Structure (SMILES) | share of the administered dose accounted for by metabolite excreted in urine ([1]; urine, after administration of LEV) | nominal therapeutic range ([1]; in vivo) | optimal trough serum/plasma concentration range ([1]; trough, serum/plasma) | given dose excreted unchanged in urine ([1]; urine, elimination via the kidney) | B/Bo ([2]; Levetiracetam 5 μg/mL, Antigen 18b) | B/Bo ([2]; Levetiracetam 5 μg/mL, Antigen 19) | B/Bo ([2]; Levetiracetam 10 μg/mL, Antigen 18b) | B/Bo ([2]; Levetiracetam 10 μg/mL, Antigen 19) | B/Bo ([2]; Levetiracetam 20 μg/mL, Antigen 18b) | B/Bo ([2]; Levetiracetam 20 μg/mL, Antigen 19) | B/Bo ([2]; Levetiracetam 40 μg/mL, Antigen 18b) | B/Bo ([2]; Levetiracetam 40 μg/mL, Antigen 19) | B/Bo ([2]; Levetiracetam 80 μg/mL, Antigen 18b) | B/Bo ([2]; Levetiracetam 80 μg/mL, Antigen 19) |
| --- | --- | --- | --- | --- | --- | --- | --- | --- | --- | --- | --- | --- | --- | --- |
| O=C(O)CCCN1CCCC1=O [2-pyrrolidone-N-butyric acid] | approximately 27% |  |  |  |  |  |  |  |  |  |  |  |  |  |
| CC[C@@H](C(N)=O)N1CCCC1=O [Levetiracetam, (−)-(S)-α-ethyl-2-oxo-1-pyrrolidine acetamide] |  | 6 to 20 µg/mL | 10 to 60 mg/L | approximately 64% | 0.96 | 0.98 | 0.98 | 0.91 | 0.90 | 0.86 | 0.88 | 0.78 | 0.87 | 0.77 |
